This note sets out measurements from ChEMBL document CHEMBL5625206, “Design, synthesis, and evaluation of novel pleuromutilin aryl acrylate derivatives as promising broad-spectrum antibiotics especially for combatting multi-drug resistant gram-negative bacteria” (Eur J Med Chem, 2023).

As a reminder, the AUC(0-t) is the area under the concentration-time curve up to a stated or last time point. In general, MIC refers to the lowest concentration that inhibits growth of the organism.

A short description of data set [1]: Toxicity in fasted male Sprague-Dawley rat assessed as relative testis weight ratio at 500 mg/kg, IG measured for 14 days (reference value: 0.993 +/- 0.052). It is filed as organism-based. The settings on record: in vivo, po, 336 h, time 14 day.
The nature of data set [2]: AUC (0 to t) in fasted Sprague-Dawley rat at 1 mg/kg, iv by LC-MS/MS analysis. The class given is ADME, organism-based. The following applies: in vivo.
The nature of data set [3]: Toxicity in fasted male Sprague-Dawley rat assessed as relative lung weight ratio at 500 mg/kg, IG measured for 14 days (reference value: 0.437 +/- 0.064). It is filed as organism-based. The settings on record: in vivo, po, 336 h, time 14 day.
The test system of a further data set is Acinetobacter baumannii. Nature of the data set: Antibacterial activity against Acinetobacter baumannii ATCC 19606 assessed as bacterial growth inhibition incubated for 24 hrs by CLSI based broth microdilution method. The class given is functional. (Broth dilution looks for growth in wells or tubes with falling amounts of substance.)
The nature of data set [4]: Toxicity in fasted female Sprague-Dawley rat assessed as relative liver weight ratio at 148 mg/kg, IG measured for 14 days (reference value: 3.199 +/- 0.062). The class given is organism-based. The following applies: in vivo, po, 336 h, time 14 day.
A further data set concerns Klebsiella pneumoniae. Nature of the data set: Antibacterial activity against multidrug-resistant Klebsiella pneumoniae 893 clinical isolate assessed as bacterial growth inhibition incubated for 24 hrs by CLSI based broth microdilution method. The class given is functional.
Data set [5] in a line: Toxicity in fasted female Sprague-Dawley rat assessed as relative spleen weight ratio at 148 mg/kg, IG measured for 14 days (reference value: 0.223 +/- 0.019). It is filed as organism-based. The following applies: in vivo, po, 336 h, time 14 day.
The test system of data set [6] is Staphylococcus aureus. Nature of the data set: Antibacterial activity against methicillin-resistant Staphylococcus aureus ATCC 33591 infected in neutropenic Kunming mouse model assessed as restoration of infection- induced change in cell morphology in liver at 20 mg/kg, ip measured after 7 days. It is filed as functional, organism-based. The following applies: time 7.0 day.

Data set [7] in a line: Toxicity in fasted female Sprague-Dawley rat assessed as relative kidney weight ratio at 500 mg/kg, IG measured for 14 days (reference value: 0.802 +/- 0.031). The class given is organism-based. The following applies: in vivo, po, 336 h, time 14 day.
Data set [8] deals with Staphylococcus aureus. Nature of the data set: Antibacterial activity against methicillin-resistant Staphylococcus aureus ATCC 33591 infected in neutropenic Kunming mouse model assessed as reduction in infection-induced inflammatory cell infiltration in liver at 20 mg/kg, ip measured after 7 days. The settings on record: time 7.0 day. The class given is functional, organism-based.

The subject of the next data set is Pseudomonas aeruginosa. Description: Antibacterial activity against multidrug-resistant Pseudomonas aeruginosa 126 clinical isolate assessed as bacterial growth inhibition incubated for 24 hrs by CLSI based broth microdilution method. The class given is functional.
Data set [9] is described as follows: Toxicity in fasted female Sprague-Dawley rat assessed as body weight at 148 mg/kg, IG measured after 14 days (reference value: 214.3 +/- 9.8 g). It is filed as organism-based. The settings on record: in vivo, po, 336 h, time 14 day.

In brackets after ≈: the same amount, converted by molar mass. Activity calls are given as the source filed them. The rule behind the calls is not given here.

In the case of `C=C[C@]1(C)C[C@@H](OC(=O)COC(=O)/C=C/c2ccc(N(C)C)cc2)[C@]2(C)[C@H](C)CC[C@]3(CCC(=O)[C@H]32)[C@@H](C)[C@@H]1O`, the Ratio is recorded as 0.956 in [1]; 0.399 in data set [3]; 3.193 in data set [4]; 0.238 in data set [5]; 0.798 in data set [7]. In [2], this compound gave an AUC(0-t) of 512 ng·h/mL. For the same compound, the results for the MIC with Acinetobacter baumannii, with Klebsiella pneumoniae and with Pseudomonas aeruginosa were 32 µg/mL (≈ 58 µM), 64 µg/mL (≈ 116 µM) and 32 µg/mL (≈ 58 µM), respectively. In addition, the outcome in the data set on Staphylococcus aureus [6] and in the data set with Staphylococcus aureus [8] was Active. For the same compound, the Activity in data set [9] turned out to be 210.5 g.
